pIC50: −log10 of the molar value.
What follows are compounds tested against T1, BACE1 (Homo sapiens, UniProt P56817) (assay: Cellular Aβ-lowering assay a) (Aβ40 ELISA)). Details: cellular assay a): HEK293 cells expressing human APP695, Aβ40 in supernatant by ELISA after 18-20 hrs; read-out: BACE1 cell act. Aβ40 IC50.
T1 construct: Human HEK293 cells which are stably transfected with a vector expressing a cDNA of the human APP wt gene (APP695); endogenous in cells; host or cells: HEK293 cells stably transfected with human APP695 (wt)
T1 sequence (P56817 46-501): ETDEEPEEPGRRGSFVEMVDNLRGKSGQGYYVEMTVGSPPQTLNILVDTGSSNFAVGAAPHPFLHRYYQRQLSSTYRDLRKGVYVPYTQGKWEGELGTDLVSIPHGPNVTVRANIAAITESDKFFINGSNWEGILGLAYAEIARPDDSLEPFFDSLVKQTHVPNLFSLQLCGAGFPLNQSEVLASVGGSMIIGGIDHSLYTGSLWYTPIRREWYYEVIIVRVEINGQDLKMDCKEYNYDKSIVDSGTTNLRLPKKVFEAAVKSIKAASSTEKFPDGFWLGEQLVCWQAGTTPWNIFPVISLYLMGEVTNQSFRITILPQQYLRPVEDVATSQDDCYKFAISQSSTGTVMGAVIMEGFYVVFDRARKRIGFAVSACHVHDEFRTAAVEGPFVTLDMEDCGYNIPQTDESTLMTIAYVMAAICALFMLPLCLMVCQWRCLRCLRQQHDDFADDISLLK
Type: cell-based
Experimental: a) Human HEK293 cells which are stably transfected with a vector expressing a cDNA of the human APP wt gene (APP695) were used to assess the potency of the compounds in a cellular assay. The cells were seeded in 96-well microtiter plates in cell culture medium (Iscove, plus 10% (v/v) fetal bovine serum, glutamine, penicillin/streptomycin) to about 80% confluence and the compounds were added at a 10× concentration in 1/10 volume of medium without FCS containing 8% DMSO (final concentration of DMSO was kept at 0.8% v/v). After 18-20 hrs incubation at 37° C. and 5% CO2 in a humidified incubator the culture supernatant was harvested for the determination of Aβ40 concentrations. 96 well ELISA plates (e.g., Nunc MaxiSorb) were coated with monoclonal antibody which specifically recognize the C-terminal end of Aβ40 (Brockhaus et al., NeuroReport 9, 1481-1486; 1998). After blocking of non-specific binding sites with e.g. 1% BSA and washing, the culture supernatants were added in suitable dilutions together with a horseradish peroxidase-coupled Aβ detection antibody (e.g., antibody 4G8, Senetek, Maryland Heights, Mo.) and incubated for 5 to 7 hrs. Subsequently the wells of the microtiter plate were washed extensively with Tris-buffered saline containing 0.05% Tween 20 and the assay was developed with tetramethylbenzidine/H2O2 in citric acid buffer. After stopping the reaction with one volume of 1N H2SO4 the reaction was measured in an ELISA reader at 450 nm wavelength. The concentrations of Aβ in the culture supernatants were calculated from a standard curve obtained with known amounts of pure Aβ peptide.

Compound | pIC50
NC1=N[C@@]2(CC(c3ccccc3)Oc3ccc(-c4cncc(Cl)c4)cc32)C(F)(F)CO1 (mixture of isomers) [Example 23, (2RS,4R)-6-(5-chloropyridin-3-yl)-5′,5′-difluoro-2-phenyl-5′,6′-dihydrospiro[chroman-4,4′-[1,3]oxazin]-2′-amine] | 6.38
N#Cc1cncc(-c2ccc3c(c2)[C@@]2(CC(c4ccccc4)O3)N=C(N)OCC2(F)F)c1 (mixture of isomers) [Example 24, 5-((2RS,4R)-2′-amino-5′,5′-difluoro-2-phenyl-5′,6′-dihydrospiro[chroman-4,4′-[1,3]oxazine]-6-yl)nicotinonitrile] | 7.01
NC1=N[C@@]2(CC(c3ccccc3)Oc3ccc(-c4cncnc4)cc32)C(F)(F)CO1 (mixture of isomers) [Example 25, (2RS,4R)-5′,5′-difluoro-2-phenyl-6-(pyrimidin-5-yl)-5′,6′-dihydrospiro[chroman-4,4′-[1,3]oxazin]-2′-amine] | 5.80
NC1=N[C@@]2(CC(c3ccccc3)Oc3ccc(-c4cc(Cl)cc(Cl)c4)cc32)C(F)(F)CO1 (mixture of isomers) [Example 26, (2RS,4R)-6-(3,5-dichlorophenyl)-5′,5′-difluoro-2-phenyl-5′,6′-dihydrospiro[chroman-4,4′-[1,3]oxazin]-2′-amine] | 5.54
NC1=N[C@@]2(CC(c3ccccc3)Oc3ccc(NC(=O)c4ccc(C(F)(F)F)cn4)cc32)C(F)(F)COC1 (mixture of isomers) [Example 52, N-((2RS,4R)-3′-Amino-6′,6′-difluoro-2-phenyl-6′,7′-dihydro-2′H-spiro[chroman-4,5′-[1,4]oxazepine]-6-yl)-5-(trifluoromethyl)picolinamide] | 5.47
N#Cc1ccc(C(=O)Nc2ccc3c(c2)[C@@]2(CC(c4ccccc4)O3)N=C(N)COCC2(F)F)nc1 (mixture of isomers) [Example 53, N-((2RS,4R)-3′-Amino-6′,6′-difluoro-2-phenyl-6′,7′-dihydro-2′H-spiro[chroman-4,5′-[1,4]oxazepine]-6-yl)-5-cyanopicolinamide] | 6.33
NC1=N[C@@]2(CC(c3ccccc3)Oc3ccc(-c4cncc(Cl)c4)cc32)C(F)(F)COC1 (mixture of isomers) [Example 56, (2RS,4R)-6-(5-Chloropyridin-3-yl)-6′,6′-difluoro-2-phenyl-6′,7′-dihydro-2′H-spiro[chroman-4,5′-[1,4]oxazepin]-3′-amine] | 5.68
NC1=N[C@@]2(CC(c3ccccc3)Oc3ccc(-c4cc(Cl)cc(Cl)c4)cc32)C(F)(F)COC1 (mixture of isomers) [Example 57, (2RS,4R)-6-(3,5-Dichlorophenyl)-6′,6′-difluoro-2-phenyl-6′,7′-dihydro-2′H-spiro[chroman-4,5′-[1,4]oxazepin]-3′-amine] | 5.20
NC1=N[C@@]2(CC(c3ccccc3)Oc3ccc(-c4cncnc4)cc32)C(F)(F)COC1 (mixture of isomers) [Example 58, (2RS,4R)-6′,6′-difluoro-2-phenyl-6-(pyrimidin-5-yl)-6′,7′-dihydro-2′H-spiro[chroman-4,5′-[1,4]oxazepin]-3′-amine] | 5.89
N#Cc1cncc(-c2ccc3c(c2)[C@@]2(CC(c4ccccc4)O3)N=C(N)COCC2(F)F)c1 (mixture of isomers) [Example 59, 5-((2RS,4R)-3′-amino-6′,6′-difluoro-2-phenyl-6′,7′-dihydro-2′H-spiro[chroman-4,5′-[1,4]oxazepine]-6-yl)nicotinonitrile] | 6.47
N#Cc1cccc(-c2ccc3c(c2)[C@@]2(CC(c4ccccc4)O3)N=C(N)COCC2(F)F)c1 (mixture of isomers) [Example 60, 3-((2RS,4R)-3′-amino-6′,6′-difluoro-2-phenyl-6′,7′-dihydro-2′H-spiro[chroman-4,5′-[1,4]oxazepine]-6-yl)benzonitrile] | 5.98
NC1=N[C@@]2(CC(c3ccccc3)Oc3ccc(NC(=O)c4ccc(Cl)cn4)cc32)C(F)(F)CO1 (single isomer, unassigned) [Example 36, N-((2R or 2S,4R)-2′-Amino-5′,5′-difluoro-2-phenyl-5′,6′-dihydrospiro[chroman-4,4′-[1,3]oxazine]-6-yl)-5-chloropicolinamide] | 6.71
N#Cc1ccc(C(=O)Nc2ccc3c(c2)[C@@]2(CC(c4ccccc4)O3)N=C(N)OCC2(F)F)nc1 (single isomer, unassigned) [Example 37, N-((2R or 2S,4R)-2′-Amino-5′,5′-difluoro-2-phenyl-5′,6′-dihydrospiro[chroman-4,4′-[1,3]oxazine]-6-yl)-5-cyanopicolinamide] | 7.15
NC1=N[C@@]2(CC(c3ccccc3)Oc3ccc(NC(=O)c4ccc(F)cn4)cc32)C(F)(F)CO1 (single isomer, unassigned) [Example 38, N-((2R or 2S,4R)-2′-Amino-5′,5′-difluoro-2-phenyl-5′,6′-dihydrospiro[chroman-4,4′-[1,3]oxazine]-6-yl)-5-fluoropicolinamide] | 6.29
NC1=N[C@@]2(CC(c3ccccc3)Oc3ccc(NC(=O)c4ccc(C(F)(F)F)cn4)cc32)C(F)(F)CO1 (single isomer, unassigned) [Example 39, N-((2R or 2S,4R)-2′-Amino-5′,5′-difluoro-2-phenyl-5′,6′-dihydrospiro[chroman-4,4′-[1,3]oxazine]-6-yl)-5-(trifluoromethyl)picolinamide] | 6.55
NC1=N[C@@]2(CCC(F)(F)c3ccc(-c4cncc(Cl)c4)cc32)C(F)(F)CO1 [Example 3, (R)-7-(5-Chloropyridin-3-yl)-4,4,5′,5′-tetrafluoro-3,4,5′,6′-tetrahydro-2H-spiro[naphthalene-1,4′-[1,3]oxazin]-2′-amine] | 5.59
NC1=N[C@@]2(CCC(F)(F)c3ccc(-c4cncc(F)c4)cc32)C(F)(F)CO1 [Example 4, (R)-4,4,5′,5′-Tetrafluoro-7-(5-fluoropyridin-3-yl)-3,4,5′,6′-tetrahydro-2H-spiro[naphthalene-1,4′-[1,3]oxazin]-2′-amine] | 5.24
N#Cc1cncc(-c2ccc3c(c2)[C@@]2(CCC3(F)F)N=C(N)OCC2(F)F)c1 [Example 5, (R)-5-(2′-Amino-4,4,5′,5′-tetrafluoro-3,4,5′,6′-tetrahydro-2H-spiro[naphthalene-1,4′-[1,3]oxazine]-7-yl)nicotinonitrile] | 5.56
NC1=N[C@@]2(CCc3ccc(-c4ccnc(Cl)c4)cc32)C(F)(F)CO1 [Example 6, (R)-6-(2-Chloropyridin-4-yl)-5′,5′-difluoro-2,3,5′,6′-tetrahydrospiro[indene-1,4′-[1,3]oxazin]-2′-amine] | 5.87
NC1=N[C@@]2(CCc3ccc(-c4cncnc4)cc32)C(F)(F)CO1 [Example 7, (R)-5′,5′-Difluoro-6-(pyrimidin-5-yl)-2,3,5′,6′-tetrahydrospiro[indene-1,4′-[1,3]oxazin]-2′-amine] | 5.63
N#Cc1cccc(-c2ccc3c(c2)[C@@]2(CC3)N=C(N)OCC2(F)F)c1 [Example 10, (R)-3-(2′-Amino-5′,5′-difluoro-2,3,5′,6′-tetrahydrospiro[indene-1,4′-[1,3]oxazine]-6-yl)benzonitrile] | 6.02
NC1=N[C@@]2(CCCc3ccc(NC(=O)c4ccc(Cl)cn4)cc32)C(F)(F)CO1 [Example 12, (R)—N-(2′-Amino-5′,5′-difluoro-3,4,5′,6′-tetrahydro-2H-spiro[naphthalene-1,4′-[1,3]oxazine]-7-yl)-5-chloropicolinamide] | 7.66

— patent publication US9079919B2 (HOFFMANN-LA ROCHE INC., priority 2011, dated 2015)
